Here are results for eight molecules from US10464939B2, “Deuterated triazolopyridazine as a kinase modulator” (Janssen Pharmaceutica NV, priority 2014, dated 2019).

Read-outs that look alike come from different tables or passages of the source.

The test system of one series is SNU-5. The series can be described thus: Proliferation assay with Alamar blue, Snu-5 cells. Type of series: cell-based. As to conditions: Homo sapiens, 96 h, 4 days incubation. Here is the method: (§1) Inhibition of Proliferation of Cancer Cells Carrying Met Amplification and Dependent on Met Signaling by the Compound of Formula (I)
(§2) Proliferation Assay with Alamar Blue
(§3) Cells were seeded out in a 96-well plate in 180 μl growth medium. Depending on the growth curve test the amount of cells per well was different for each cell line. The cells were incubated overnight in an incubator at 37° C. in a humidified 5% CO2 atmosphere. The next day: The compound plate was prepared and 4 μl of compound was added to 196 μl of pre-warmed medium. 20 μl of this was added to 180 μl of cells. This was incubated for 4 days after adding the compound at 37° C. in a humidified 5% CO2 atmosphere. After the 4 days 40 μl of Alamar blue solution was added. This was incubated at 37° C. in a humidified 5% CO2 atmosphere for 4 hours (depending on the cell line this was tested before at different hours of incubation during the growth curve test). After the 4 hours the fluorescence was measured at excitation 530 nm, emission 590 nm. The fluorescence of control (DMSO treatment) was taken as 100% and the fluorescence of cells incubated with compounds was calculated against the control in %. So a dose response curve could be made and a IC50 could be calculated.

In the next series the test system is EBC1. The series can be described thus: Proliferation assay with Alamar blue, EBC-1 cells. It counts as cell-based. As to conditions: Homo sapiens, EBC-1, 96 h, 4 days incubation. The procedure: as §1, §2, §3
Series [1] can be described thus: In vivo pharmacokinetic determination of compound (I), compound A and their metabolites in plasma. Set-up: species or system New Zealand White Rabbits. As to conditions: both sexes, New Zealand White, male and female rabbit; for AUC(0-inf) / AUC(0-t) / Cmax / Tmax / MRT: rabbit, po, 10 mg/kg; for MRT: read-out: MRT (mean residence time). The text has this: In vivo pharmacokinetic determination of compound (I), compound A and their metabolites in New Zealand White Rabbits.
Male New Zealand rabbits (Crl: KBL (NZW), Charles River, France) and female New Zealand rabbits (NZW INRA A1077, Centre Lago) were used. Per compound (compound of formula (I) and compound A) one male and two female rabbits were used with a mean weight of 2.6±0.2 kg. A complete plasma concentration time-profile was obtained from each individual animal. Standard diet and tap water were available ad libitum. Compound of formula (I) and compound A were both dissolved in a 10% (w/v) SBE-B-CD (sulfobutyl ether-beta-cyclodextrin) research grade (Captisol) solution at a final concentration of 1 mg/ml. HCl and PVP K30 were added to facilitate dissolution of the compounds. After total dissolution, the pH was brought up to 2.6/2.7 with NaOH. The formulations were stored at room temperature, protected from light and analysed quantitatively with LC-MS/MS on the day of preparation. Stability of the formulations was checked on the day of dosing. Animals were dosed orally by gavage at 10 ml/kg to obtain a final dose of 10 mg/kg. From each individual dosed animal, blood samples were taken at 30 minutes, 1, 2, 4, 7 and 24 hours after oral administration. Blood was collected by multiple sampling from a lateral ear vein into Multivette® 600 K3E tubes (Sarstedt). Samples were placed immediately on melting ice and plasma was obtained following centrifugation at 4° C. for 10 minutes at approximately 1900×g. All samples were shielded from daylight and stored at ≤−18° C. prior to analysis. Plasma samples were analysed for compound (I), compound A, metabolite 1, metabolite 2, N-desmethyl metabolite 3 (which was calculated on the curve of N-desmethyl metabolite 4) and N-desmethyl metabolite 4 using a qualified research LC-MS/MS method. The key analytical performance (linearity, upper and lower limit of quantification, accuracy and precision) of the method was reported together with the plasma concentrations. The lower limit of quantification (LLOQ) for plasma was 1.00 ng/ml for all compounds. A limited pharmacokinetic analysis was performed using Phoenix™ Professional (Version 6.2.1). A non-compartmental analysis using the lin/log trapezoidal rule with lin/log interpolation was used for all data.

Series [2] in a line: Phase I, first-in-human trial of compound A. It counts as in vivo. Here is the method:
The safety, pharmacokinetics, pharmacodynamics and initial efficacy of the potent and selective c-Met inhibitor with the following structure
(§4) [drawing 2] was explored in a phase I, first-in-human trial. […] Extensive additional pre-clinical experiments were performed to understand the nature of the renal effects. Metabolism data pointed into the direction of the rabbit to be a suitable toxicology species.

Series [3] in a line: Pre-clinical toxicity tests of compound A in rat. Type of series: in vivo. The procedure:
as §4

Series [4] can be described thus: Pre-clinical toxicity tests of compound A in dog. Type of series: in vivo. Here is the method: as §4
The nature of series [5]: Toxicology study of compound A in rabbit. Type of series: in vivo. Here is the method: as §4
A further series concerns the target T1, OCT2 (SLC22A2) (Homo sapiens, UniProt O15244).
T1 construct: host or cells: Chinese Hamster Ovary (CHO) cells stably transfected with OCT2
T1 sequence (O15244 1-555): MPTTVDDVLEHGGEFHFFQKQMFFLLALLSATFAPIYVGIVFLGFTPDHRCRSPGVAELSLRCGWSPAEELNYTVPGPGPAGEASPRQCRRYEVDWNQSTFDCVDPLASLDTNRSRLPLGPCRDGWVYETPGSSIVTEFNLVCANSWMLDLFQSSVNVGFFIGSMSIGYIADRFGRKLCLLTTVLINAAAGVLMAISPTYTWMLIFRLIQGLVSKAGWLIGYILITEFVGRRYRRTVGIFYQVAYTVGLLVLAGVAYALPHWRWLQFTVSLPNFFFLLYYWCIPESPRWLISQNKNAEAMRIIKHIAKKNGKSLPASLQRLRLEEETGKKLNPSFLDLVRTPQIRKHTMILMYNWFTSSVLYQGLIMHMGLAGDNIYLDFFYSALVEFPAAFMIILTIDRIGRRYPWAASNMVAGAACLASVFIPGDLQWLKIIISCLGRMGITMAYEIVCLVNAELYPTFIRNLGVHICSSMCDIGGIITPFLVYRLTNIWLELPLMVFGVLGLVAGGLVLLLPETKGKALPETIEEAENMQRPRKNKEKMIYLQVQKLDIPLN
In words: cell-based. Type of series: cell-based.

Another series relates to CHO Parental cells. The series can be described thus: Cytotoxicity test (PrestoBlue viability), CHO parental cells. As to conditions: for cytotoxic effects (in words): 100 μM, both CHO parental and OCT2 cells; for Cell Viability %: CHO parental cells, after 1 minute of incubation, compound of formula (I) 100 μM, Triton X-100 1%. Type of series: cell-based, Chinese Hamster. Here is the method: (§5) Cytotoxicity of the compound of formula (I) was determined at 100 μM, and this in both CHO parental and OCT2 cells. Also a 1% Triton-X100 condition was included, as a positive control cytotoxic reagent. After 1 minute of incubation the supernatant was aspirated, the dry cells washed twice with 1 mL HBSS^+/++10 mM Hepes pH 7.4 (37° C.). After aspiration of the buffer, a 1/10 dilution of the PrestoBlue Viability Reagent (Life Technologies) in HBSS^+/++10 mM Hepes pH 7.4 was added and plates were incubated for 60 minutes at 37° C., protected from light. Each well was sampled (150 μL) in a black 96-well plate and fluorescence was measured (Excitation: 560 nm/12 nm bandwith, Emission: 590 nm/12 nm bandwith).

For the next series, the system named is CHO OCT2 cells. The series can be described thus: Cytotoxicity test (PrestoBlue viability), CHO OCT2 cells. As to conditions: after 1 minute of incubation, compound of formula (I) 100 μM, Triton X-100 1%. It counts as cell-based, Chinese Hamster. Here is the method: as §5
Series [6] deals with aldehyde oxidase / CYP450. In words: Metabolisation of compound of formula (I) compared to compound A. The text has this: This may decrease renal toxicity.
In case of the present compound of formula (I) more of the N-desmethyl metabolite with the following structure is formed

The nature of series [7]: Solubility of Metabolite 2. It counts as physicochemical. The text has this:
Solubility of Metabolite 2:

Setting [8] is: single oral 10 mg/kg of compound (I).
[9] abbreviates: single oral 10 mg/kg of compound A.

Procedure for OCT2 (SLC22A2): This was tested using Chinese Hamster Ovary (CHO) cells, parental or stably transfected with OCT2. ^14C-Metformin was used as OCT2 substrate.
CHO cell lines, parental and stably transfected with OCT2 were obtained from Solvo Biotechnology (Hungary).
CHO cells were cultured in DMEM-F12 (Dulbecco's Modified Eagle Medium) supplemented with 0.03 mg/mL L-Proline, 1% L-Glutamine, penicillin (50-100 U/mL), streptomycin (50-100 μg/mL) and 10% (v/v) foetal calf or bovine serum (FCS) further referred to as “CHO culture medium”.
If needed, non-radiolabeled and radio-labeled compounds were mixed to obtain the proper chemical and radioactive concentration. Proper solvent controls were included.
Both, CHO parental and OCT2 cells were seeded into 24 well plates (1 mL/well, 400 000 cells/well) in CHO culture medium.
Transport experiments were performed in Hank's Balanced Salt Solution^+Ca,+Mg (HBSS^+/+) supplemented with 10 mM HEPES at pH 7.4. All media added to the cells and plates were kept at 37° C.
Before the incubation, the cells in each well were washed twice with 1 mL HBSS^+/++10 mM Hepes pH 7.4 at 37° C. Next, the incubation medium, containing reference substrate and the inhibitors (or inhibitor solvent) was added (250 μL/well).
At the time of dose administration (0 min), 150 μL of the dosing solution was sampled in triplicate for determination of initial concentrations by Liquid Scintillation Counting (LSC). During the incubation period, the plates were kept at 37° C.
To stop the reaction, 1.5 mL ice-cold HBSS^+/+ was added to each well and the liquids were aspirated. Again, to each well 2 mL ice-cold HBSS^+/+ was added and aspirated while keeping the plate angled. Following aspiration of the last well, all the wells were aspirated again taking care of not touching the cells.
To lyse the cells, 250 μL of Mammalian Protein Extraction Reagent (M-PER) lysis buffer was added to each well and the plates were shaken for at least 10 minutes (400 rpm). For LSC, a 150 μL sample/well was taken and for protein analysis a 25 μL sample/well. […]

Molecule `Cn1cc(-c2ccc3nnc(C(F)(F)c4ccc5ncccc5c4)n3n2)cn1` [Compound A, reference compound] returned an IC50 with SNU-5 of 13.8 nM. This molecule also showed an IC50 in the series on EBC1 of 13.4 nM. In [1] (setting [8]), the area under the curve AUC(0-inf) worked out at 62.3 ± 47.8 ng·h/mL, the AUC(0-t) was 53.7 ± 40.6 ng·h/mL, the Cmax worked out at 27.6 ± 17.4 ng/mL and the Tmax was determined as 0.5 h. Further, in series [1] (setting [8]), the mean residence time MRT was 3.24 ± 0.76 h and the half-life is 2.1 ± 0.4 h. For the same molecule, in series [1] (setting [9]), the AUC(0-inf) amounted to 8220 ± 5740 ng·h/mL, the AUC(0-t) was found to be 8190 ± 5740 ng·h/mL, the maximum concentration (Cmax) amounted to 1830 ± 1360 ng/mL and the time of peak concentration (Tmax) amounted to 1 h. Besides, in [1] (setting [9]), the MRT is 5.2 ± 0.9 h. For the same molecule, in series [2], the “toxicity finding in phase I, first-in-human trial” value is recorded as “unexpected renal toxicity”. Also, the pre-clinical toxicity profile entry in [3] is given as “clean toxicity profile”. In series [4], the pre-clinical toxicity profile result was “clean toxicity profile”. For the same molecule, in series [5], the “effect on renal function” value was “did affect renal function”; the “histological analysis of kidney” value is “crystal formation with consequently degenerative and inflammatory changes in the kidney”.

In the series on SNU-5, `[2H]c1ccc2cc(C(F)(F)c3nnc4ccc(-c5cnn(C)c5)nn34)ccc2n1` [Compound of formula (I)] came in with an IC50 of 13.2 nM. The IC50 in the series on EBC1 is 12 nM. Also, in series [1] (setting [8]), the area under the curve AUC(0-inf) amounted to 8570 ± 6440 ng·h/mL, the area under the curve AUC(0-t) is 8460 ± 6520 ng·h/mL, the highest concentration (Cmax) is 3570 ± 2320 ng/mL and the time to peak (Tmax) is 0.5 h. In addition, the MRT in [1] (setting [8]) stood at 4.6 ± 1 h. At OCT2 (SLC22A2), the midpoint of inhibition, the IC50, lay at 670 ± 20 nM and the “inhibition of the 14C-Metformin uptake in OCT2 cells (in words)” value was “shows inhibition”. In addition, in the series with CHO Parental cells, the “cytotoxic effects (in words)” value is listed as “no cytotoxic effects were observed” and the “Cell Viability %” value was 104%. Further, the “Cell Viability %” value in the series with CHO OCT2 cells came to 103%. Besides, the “formation of insoluble/less soluble aldehyde oxidase mediated metabolites” value in [6] is recorded as “down regulated”.

Regarding `O=c1ccc2cc(C(F)(F)c3nnc4ccc(-c5cn[nH]c5)nn34)ccc2[nH]1` [Metabolite 1, 6-{Difluoro[6-(1H-pyrazol-4-yl)[1,2,4]triazolo[4,3-b]pyridazin-3-yl]methyl}quinolin-2(1H)-one], in [1] (setting [8]), the AUC(0-inf) worked out at 409 ± 7 ng·h/mL, the highest concentration (Cmax) was 57.5 ± 34.2 ng/mL, the time to peak (Tmax) is 2.3 ± 1.5 h and the mean residence time (MRT) amounted to 7 ± 0.7 h. For the same molecule, in series [1] (setting [9]), the area under the curve AUC(0-inf) worked out at 1050 ± 421 ng·h/mL, the area under the curve AUC(0-t) worked out at 934 ± 336 ng·h/mL, the maximum concentration (Cmax) came to 126 ± 80 ng/mL and the Tmax came to 2.7 ± 1.2 h. Besides, the mean residence time (MRT) in series [1] (setting [9]) was found to be 7.8 ± 1.4 h.

Consider `Cn1cc(-c2ccc3nnc(C(F)(F)c4ccc5[nH]c(=O)ccc5c4)n3n2)cn1` [Metabolite 2, 6-{Difluoro[6-(1-methyl-1H-pyrazol-4-yl)[1,2,4]triazolo[4,3-b]pyridazin-3-yl]methyl}quinolin-2(1H)-one], for which, in [7] (pH 4.84, aqueous buffer), the solubility was 1 µg/mL. The solubility in series [7] (pH 7.33, aqueous buffer) is 2 µg/mL. Also, in series [1] (setting [8]), the AUC(0-inf) was determined as 152 ± 81 ng·h/mL, the AUC(0-t) was 127 ± 65 ng·h/mL, the Cmax stood at 39.8 ± 13.1 ng/mL and the Tmax was determined as 0.8 ± 0.3 h. Besides, the MRT in series [1] (setting [8]) is 3.8 ± 0.7 h. Also, in series [1] (setting [9]), the area under the curve AUC(0-inf) stood at 439 ± 331 ng·h/mL, the exposure AUC(0-t) was determined as 341 ± 259 ng·h/mL, the highest concentration (Cmax) is 84.4 ± 55.9 ng/mL and the time to peak (Tmax) stood at 1 h. In series [1] (setting [9]), the mean residence time (MRT) worked out at 5 ± 9 h and the half-life is 3 ± 0.5 h.

`[2H]c1ccc2cc(C(F)(F)c3nnc4ccc(-c5cn[nH]c5)nn34)ccc2n1` [N-desmethyl metabolite 3]: in series [1] (setting [8]), the AUC(0-inf) stood at 2360 ± 450 ng·h/mL, the AUC(0-t) came to 2310 ± 392 ng·h/mL, the Cmax worked out at 738 ± 447 ng/mL and the time to peak (Tmax) is 1.2 ± 0.8 h. Besides, in [1] (setting [8]), the MRT is 5.1 ± 0.3 h and the half-life is 4.4 ± 1.9 h.

In the case of `FC(F)(c1ccc2ncccc2c1)c1nnc2ccc(-c3cn[nH]c3)nn12` [N-desmethyl metabolite 4, 6-{Difluoro[6-(1H-pyrazol-4-yl)[1,2,4]triazolo[4,3-b]pyridazin-3-yl]methyl}quinoline], in series [1] (setting [9]), the total exposure AUC(0-inf) was determined as 1510 ± 190 ng·h/mL, the area under the curve AUC(0-t) stood at 1490 ± 193 ng·h/mL, the Cmax was found to be 299 ± 146 ng/mL and the time of peak concentration (Tmax) turned out to be 1.3 ± 0.6 h. Further, the mean residence time (MRT) in series [1] (setting [9]) worked out at 5.7 ± 0.9 h.

The molecule `C=C[C@H]1C[N@@]2CC[C@H]1C[C@@H]2[C@@H](O)c1ccnc2ccc(OC)cc12` [Quinidine, reference compound] displayed an inhibition at 1 min, 300 μM on OCT2 (SLC22A2) (human, pH 7.4, inhibition of 14C-Metformin uptake) of 85.5%.

Turning to Triton X-100 [reference compound], the “cytotoxic effects (in words)” value with CHO Parental cells is recorded as “viability dropped dramatically”. In addition, the “Cell Viability %” value with CHO Parental cells and with CHO OCT2 cells was 0% throughout.
